Laboratory results reported in US8575145B2, “Triazolopyridine compounds as PIM kinase inhibitors” (Array BioPharma Inc., priority 2008, dated 2013).
Where a name gives a salt, the structure may show the parent alone.

Tests used:
[1] = test system: C57BL/6 mice immunized with hen egg lysozyme; experiment: T Cell In Vivo Functional Assay (HEL immunization, ex vivo recall); parameters: species or system mouse; conditions: 200 mg/kg oral twice a day, 7 days; relative to vehicle
Experimental: To determine the effect of compounds of Formula I on T cell responses, the following experiment was conducted. On Day O, C57BL/6 (Jackson Laboratories #000664, 6-8 weeks of age) were immunized at the base of the tail with 100 μg of hen egg lysozyme (HEL; Sigma #L7773) with complete Freund's adjuvant (CFA; Sigma #F5881). Starting on Day 0 and continuing until Day 7, mice were dosed twice a day by oral administration with vehicle (water) or the compound of Example 26 (200 mg/kg). On Day 7, opopiteal lymph nodes were removed, single cell suspensions were prepared and 500,000 cells in 200 μL were activated in 96 well plates with the indicated dose of HEL peptide. Following incubation for 72 hours at 37° C., 5% CO2, supernatants were harvested for IFNγ ELISA (R&D Systems catalog #MIF00) and proliferation was assessed using the CellTitre-Glo™ luminescent assay (Promega, Catalog #G7571) with both assays performed according to the manufacturer's protocol. ELISA plates were quantified relative to a standard curve using Molecular Devices Versamax Reader at […] and Softmax Pro software; proliferation was quantitated on a Packard TopCount instrument using luminescence protocol and data was analyzed using excel software.

[2] = test system: C57BL/6J mice immunized with hen egg lysozyme; experiment: B Cell in vivo Functional Assay (HEL-specific antibody isotypes); parameters: species or system mouse; conditions: 200 mg/kg oral once a day, Day 21, vs vehicle
Experimental: To determine the effect of a compound of Formula I on B cell responses, the following experiment was conducted. On Day O, C57BL/6J mice (Jackson Laboratories #000664, 6-8 weeks of age) were immunized at the base of the tail with 20 μg of hen egg lysozyme (HEL; Sigma #L7773) with complete Freund's adjuvant (CFA; Sigma #F5881). Mice were re-immunized on day 7 with 20 μg HEL in alum (Pierce catalog #77161). Starting on Day 0 and continuing through Day 28, mice were dosed once a day by oral administration with vehicle (water) or the compound of Example 26 (200 mg/kg). Serum was collected on days 0, 7, 14, 21, and 28 and analyzed for HEL-specific total IgG, IgG1, IgG2a, IgG2b, and IgG3 antibody production by capture ELISA (antibodies purchased from Invitrogen, catalog #M30007, #M32107, #M32307, #M32507, #M32607). ELISA plates were quantitated using Molecular Devices Versamax reader at […]. The group mean titer of each antibody analyte was converted to percent of vehicle control (=100%).

[3] = test system: C.B17/Icr-Prkdc^scid/IcrIcoCrl mice, adoptive transfer model of IBD; experiment: CD4+CD45RBhi Adoptive Transfer Inflammatory Bowel Disease; assay type: in vivo, mouse; conditions: 200 mg/kg oral twice daily, 21 days of treatment
Experimental: On Day 0, CD4+ T cells were isolated from the spleens of female Balb/cAnNCrl mice (Charles River Laboratories; 12 weeks old) as described in Example E. The resulting cells were labeled with fluorescent antibodies against CD4 and CD45 markers and were sorted by flow cytometry for CD4+CD45RBhi cells based on fluorescence. 400,000 CD4+CD45RBhi cells were then injected intraperitoneally into C.B17/Icr-Prkdc^scid/IcrIcoCrl mice (Charles River Laboratories strain code 236; 12 weeks old). This injection of cells is known to those skilled in the art as adoptive transfer. […]
For each H&E stained section, submucosal edema was quantitated by measuring the distance from the muscularis mucosa to the internal border of the outer muscle layer in a non-tangential area thought to most representative the severity of this change. Mucosal thickness was also measured in a non-tangential area of the section that best represented the overall mucosal thickness. […]
The parameters reflecting epithelial cell loss/damage were scored individually using a % area involved scoring method: […]
The three scored parameters (inflammation, glandular epithelial loss, and erosion) were ultimately summed to arrive at a sum of histopathology scores, which indicates the overall damage and would have a maximum score of 15.

F[C@@H]1CNCCC1Oc1cccc2ccc(-c3nnc4ccccn34)nc12 (stereo in doubt) [Example 26, 2-([1,2,4]triazolo[4,3-a]pyridin-3-yl)-8-((cis)-3-fluoropiperidin-4-yloxy)quinoline dihydrochloride] was tested, and the “ex vivo HEL-specific proliferation” value [1] was “decreased”, the “ex vivo IFNγ production” value [1] was “decreased” and the “HEL-specific IgG2a titer” value [2] was “decreased”. The “HEL-specific IgG2b titer” value [2] was “decreased”, the “HEL-specific IgG3 titer” value [2] was “decreased” and the “colon histopathology scores (inflammation, gland loss, erosion)” value [3] was “reduced severity of disease”. For the same compound, the “decrease in mucosal thickening relative to vehicle” value [3] was 84%.
